Reference: patent US7262003B2, “Plant test procedure to detect natural, semi-synthetic, synthetic compounds and physical stress factors through expression of distinct responses” (Council of Scientific and Industrial Research, priority 1998, dated 2007)
Entries after “also recorded” stand apart in the source; their conditions may differ. Like-named read-outs stand apart in the source and are kept apart here.

What was measured:
[1] = tested on: Bacopa root tips; assay type: in vivo, Bacopa monnieri
[2] = tested on: Bacopa monnieri twig cuttings; assay type: in vivo
[3] = tested on: regenerants of Bacopa monniera; conditions: cited from earlier work
[4] = tested on: Avocado cv. Verde in vitro; conditions: antibiotic in the plant growth medium; cited from earlier work
[5] = tested on: Bacopa cultures; conditions: in vivo; cited from earlier work
[6] = tested on: Bacopa monnieri leaf, internode and twig cuttings; experiment: Response of leaf, internode and twig cutting explants to growth promoters (auxins, cytokinins) in MS 0 medium; assay type: in vivo; conditions: for Response observed, Cutting: MS 0 medium containing 1.0 mg/litre; for Response observed, Cutting / Response observed, Internode / Response observed, Leaf: recorded up to two weeks; for Response of leaf, internode and cuttings: MS 0 supplemented at 0.5 and 1.0 mg/litre
Description: Initially the experiments were designed to observe the response of leaf, internode and cuttings against growth promoters (auxins: 2,4-D & Indole acetic acid) and […] (cytokinins: 6-Benzyl amino purine & kinetin). The basal medium for studying the response was MS 0 (Murashige T and Skoog F, 1962, Physiol. Planta. 15: 473–497) supplemented with these growth regulators at the rates of 0.5 and 1.0 mg/litre along with a control of just the basal medium.
The basal medium for studying the response was MS 0 (Murashige T and Skoog F, 1962, Physiol. Planta. 15: 473–497) supplemented with test compounds along with a control of just the basal medium. Measured 0.5 ml medium was poured into 1.5 ml graduated microcentrifuge tubes. Into this, twig cutting of 2.5 cm were inoculated in 20 replicates for each type of medium. These inoculated tubes were put into a half transparent (top lid) box allowing air passage through sterile cotton plugs such that the medium containing portion of the tubes where roots would be initiating is inserted into the stand holes made from a thermocol sheet. Refer FIG. 1 of Sheet #1. […] Such boxes were incubated at normal ambient temperature of 25–28° C. with 14 hours light and 10 hours dark cycle.
To find out the effect of growth promoters such as Indole 3 acetic acid (IAA), 2,4-Dichlorophenoxy acetic acid (2,4-D), and cytokinins such as 6-Benzyl Amino Purine (6-BAP) and Kinetin, the leaf, internode and twig cuttings were inoculated into MS 0 medium containing […] of the above said compounds and the responses were recorded up to two weeks in terms of rooting, callusing and shoot regeneration (Table 1).

[7] = tested on: Bacopa monnieri twigs; experiment: Cytotoxic/weedicidal effect: menthol in medium and Mentha arvensis oil sprayed on twigs; assay type: in vivo; conditions: menthol added to the medium and oil sprayed on the twigs
Description: We also planned the experiments to determine if this procedure can depict a clear cut manifestation of cytotoxic/weedicidal effect of compounds. For this purpose we used a known essential oil of Mentha arvensis, which is rich in the toxic but useful component, menthol as the treatment. The procedure involved was same as in the above examples with the exception that menthol was added to the medium and oil was sprayed on these twigs which were inoculated into the medium. […] Refer to FIG. #4 of Sheet #2.

[8] = tested on: Bacopa monnieri twigs; experiment: Growth inhibitor test on twigs in basal MS media; assay type: in vivo; conditions: after 10 days of inoculation
Description: The basal medium for studying the response was MS 0 (Murashige T and Skoog F, 1962, Physiol. Planta. 15: 473–497) supplemented with test compounds along with a control of just the basal medium. Measured 0.5 ml medium was poured into 1.5 ml graduated microcentrifuge tubes. Into this, twig cutting of 2.5 cm were inoculated in 20 replicates for each type of medium. These inoculated tubes were put into a half transparent (top lid) box allowing air passage through sterile cotton plugs such that the medium containing portion of the tubes where roots would be initiating is inserted into the stand holes made from a thermocol sheet. Refer FIG. 1 of Sheet #1. This set up was helpful in preventing the light exposure to the root portion while at the same time aerial parts got sufficient light and aeration. Such boxes were incubated at normal ambient temperature of 25–28° C. with 14 hours light and 10 hours dark cycle. […] The earliest response was seen was on day 3 in the case of medium containing ¼th level of nitrogen followed by medium containing normal level of nitrogen, while in the case of zero nitrogen, initiation was observed only after 8 days. Thus, the medium with ¼ nitrogen level of standard MS basal medium was selected for root assays and was referred as MSR (rooting) medium.
The effects of growth inhibitors were also tested using the protocol as described in Example 1. […]

[9] = 10 and 100 μg/ml in MSR, up to day 15
[10] = concentrations ranging from 1 to 100 μg/ml, 14 days

Structure (SMILES): CC(=O)O[C@H]1C(=O)[C@@]2(C)[C@H]([C@H](OC(=O)c3ccccc3)[C@]3(O)C[C@H](OC(=O)[C@H](O)[C@@H](NC(=O)c4ccccc4)c4ccccc4)C(C)=C1C3(C)C)[C@]1(OC(C)=O)CO[C@@H]1C[C@@H]2O [Taxol, taxol]
- Effect on mitotic index (words) ([1]; 10 μg/ml): significantly reduce the mitotic index
- Reduction of mitotic index compared to untreated control samples ([1]; 10 μg/ml): 2.55 fold
- Number of cells in phase Ana ([1]; 10 μg/ml, dipping 3 hours): 01
- Number of cells in phase Meta ([1]; 10 μg/ml, dipping 3 hours): 03
- Number of cells in phase Pro ([1]; 10 μg/ml, dipping 3 hours): 01
- Number of cells in phase Telo ([1]; 10 μg/ml, dipping 3 hours): 00
- Mitotic Index ([1]; 10 μg/ml, dipping 3 hours, 10 randomly selected fields): 7.14 ± 1.52
- Effect on mitotic index (words) ([1]; 10 μg/ml, listed as taxol): substantial reduction in the mitotic index
- Cell division in the root tips ([1]; 100 μg/ml): inhibited almost complete cell division
- Root initiation [2, 9]: inhibited the complete root initiation
- Visible effect on the aerial parts [2, 9]: wilting of the leaves
- Root initiation [2, 10]: did not initiate the roots at all
- Shoot growth and health [2, 10]: no shoot growth; also recorded: wilting and later withering

Structure (SMILES): [Cd] [Cd, cadmium]
- Concentration tolerated ([3]; grown with additional supply of Cu): up to 100 μM
- Concentration beyond which regenerants did not survive ([3]; in vivo): 50 µM

Structure (SMILES): [H]/N=C(/N)N[C@H]1[C@H](O)[C@@H](O)[C@H](O[C@@H]2O[C@@H](C)[C@](O)(C=O)[C@H]2O[C@@H]2O[C@@H](CO)[C@H](O)[C@@H](O)[C@@H]2NC)[C@@H](N/C(N)=N\[H])[C@@H]1O [streptomycin]
- Toxicity to avocado (length of sprouts reduced) [4]: toxic

Structure (SMILES): [Cl][Al]([Cl])[Cl] [AlCl3]
- Concentration beyond which Bacopa cultures could not survive [5]: 400 µM

Structure (SMILES): c1ccc(CNc2ncnc3nc[nH]c23)cc1 [BAP, 6-Benzyl Amino Purine]
- Response observed, Cutting [6]: Root Initiation and Root
- Response observed, Internode ([6]; MS 0 medium containing 1 mg/ml): Callus Initiation; also recorded: Shoot
- Response observed, Leaf ([6]; MS 0 medium containing 1 mg/ml): Callus Initiation; also recorded: Shoot
- Response of leaf and internodal explant ([6]; MS 0 medium containing 1 mg/ml, up to two weeks): green callus has formed, followed by shoot regeneration
- Response of leaf, internode and cuttings [6]: green callus developed in all three explants followed by shoot regeneration

Structure (SMILES): CC1CCC(C(C)C)C(O)C1 (centres unmarked) [menthol]
- Spread of chlorophyll loss [7]: within a week time covered whole twig

Structure (SMILES): O=C(N[C@H](CO)[C@H](O)c1ccc([N+](=O)[O-])cc1)C(Cl)Cl [chloramphenicol]
- Toxicity to avocado (length of sprouts reduced) [4]: toxic

Structure (SMILES): c1coc(CNc2ncnc3[nH]cnc23)c1 [Kinetin]
- Response observed, Cutting [6]: Root Initiation and Root
- Response observed, Internode ([6]; MS 0 medium containing 1 mg/ml): No Response
- Response observed, Leaf ([6]; MS 0 medium containing 1 mg/ml): Root Initiation

Structure (SMILES): CCn1cc(C(=O)O)c(=O)c2ccc(C)nc21 [nalidixic acid, Nalidixic acid]
- Toxicity to avocado (length of sprouts reduced) [4]: toxic
- Root initiation and growth ([8]; 10 μg/ml): roots got initiated from the submerged nodes but their growth was less than the control
- Root initiation and growth ([8]; 100 μg/ml): very small roots arose from submerged node and their growth was completely arrested

Structure (SMILES): O=C(O)Cc1c[nH]c2ccccc12 [IAA, Indole 3 acetic acid]
- Response observed, Cutting [6]: Aerial Root
- Response observed, Internode ([6]; MS 0 medium containing 1 mg/ml): Root Initiation
- Response observed, Leaf ([6]; MS 0 medium containing 1 mg/ml): Root Initiation
- Response of leaf, internode and cuttings [6]: profuse rooting

Structure (SMILES): O=C(O)COc1ccc(Cl)cc1Cl [2,4-D, 2,4-Dichlorophenoxy acetic acid]
- Response observed, Cutting [6]: Aerial Root
- Response observed, Internode ([6]; MS 0 medium containing 1 mg/ml): Root Initiation; also recorded: Root Thickening; also recorded: Explant Swelling
- Response observed, Leaf ([6]; MS 0 medium containing 1 mg/ml): Root Initiation; also recorded: Root Thickening; also recorded: Callus Initiation
- Response of leaf, internode and cuttings [6]: small thick roots got initiated at the internodes
